The nature of series [1]: Clinical pharmacokinetic evaluation, 3-hour infusion. Type of series: in vivo, human. The method, then: Pharmacokinetic (PK) evaluation was performed on Days 1 and 15.
Series [2] is described as follows: Mass balance, elimination, autoradiography and metabolites with 14C-label. Type of series: in vivo. To be noted: male rats, 14C-labeled Compound 1 IV bolus 50 mg/kg, total radioactivity. The protocol: Treated rats were further cannulated in femoral vein and the bile duct to allow for the evaluation of the rate and extent of elimination of total radioactivity from urine, bile, and feces. Total radioactivity was analyzed by liquid scintillation counting.
Preparation of samples for metabolite analysis was as follows. Plasma samples were extracted by protein precipitation with acetonitrile. The extraction was preformed by adding ice cold acetonitrile (3 parts) to plasma (1 part v/v). After the samples were mixed using a benchtop vortex mixer the samples were centrifuged, the supernatants were transferred to silanized glass tubes, evaporated to dryness under nitrogen, and reconstituted in 50/50 acetonitrile/water solution. Urine samples were directly injected. Bile samples containing radioactivity were diluted in water prior to injection.
Metabolites in plasma, urine, and bile were separated on a reverse phase HPLC column with an Agilent 1000 system (Santa Clara, Calif.).

Series [3] in a line: Rising dose pharmacokinetics (exposure, gender). Type of series: in vivo, rats. To be noted: for clearance / half-life / Vd: Sprague-Dawley, plasma, iv. The text has this: Pharmacokinetic parameters were estimated using noncompartmental analysis within WinNonlin v. 4.1. […] For rising dose experiments measuring exposure for each species, sets containing several animals were singly dosed at a given dose.

Another series concerns the target T1, c-Raf (Homo sapiens, UniProt P04049).
T1 construct: purchased Upstate Biotechnology, Dundee, UK
Briefly: Radiometric kinase assay (Upstate panel). Type of series: biochemical.

The subject of series [4] is A2780 ovarian cancer xenograft. The experiment in a line: In vivo efficacy, mouse xenograft. The method, then: Percent TGI is then calculated with the following equation: […]
Time To Endpoint (TTE) was calculated for each individual animal to reach the predetermined study end point where the tumor volume becomes 1200 mm^3 or 10% of body weight or a greater than 20% body weight loss for two sequential measurements. The TTE is calculated and the median value is recorded for the group. Tumor Growth Delay (TGD) is then calculated with the following equation: […]
A2780 ovarian cancer cells [200 μL of a 2.5×10^7 cells/mL suspension (1:1 DPBS with cells:Matrigel)] were implanted subcutaneously in the right hind flank of mice. After 7 days, when tumors reached an average volume of approximately 130 mm^3, animals were weighed, randomized by tumor volume (l×w×h×0.52), and assigned to the various study groups before initial dosing.

A further series deals with HT-29. The experiment in a line: cells. To be noted: Homo sapiens, HT-29, 16 h, read-out: Cell Cycle EC50.
In a further series the test system is Calu-6. The experiment in a line: cells. To be noted: Homo sapiens, Calu-6, 96 h, read-out: BrdU IC50. The method, then: (§1) Cellular proliferation was assessed using the Cell Proliferation ELISA, bromodeoxyuridine (BrdU) kit (Roche) including reagents, according to the kit protocol.
The test system of the next series is H1299. Briefly: cells. To be noted: Homo sapiens, NCI-H1299, 96 h, read-out: BrdU IC50. The protocol: as §1
In the next series the test system is A375. The experiment in a line: cells. To be noted: Homo sapiens, A-375, 96 h, read-out: BrdU IC50. The protocol: as §1
The next series relates to HCT116. The experiment in a line: cells. To be noted: Homo sapiens, HCT-116, 96 h, read-out: BrdU IC50. The protocol:
as §1

In another series the test system is MDA-MB-231. The experiment in a line: cells. To be noted: Homo sapiens, MDA-MB-231, 96 h, read-out: BrdU IC50. The method, then: as §1
Another series relates to PC3. The experiment in a line: cells. To be noted: Homo sapiens, PC-3, 96 h, read-out: BrdU IC50. The method, then: as §1
For the next series, the system named is A2780. Briefly: cells. To be noted: Homo sapiens, A2780, 96 h, read-out: BrdU IC50. The protocol: as §1
For a further series, the system named is HeLa. The experiment in a line: cells. To be noted: Homo sapiens, 96 h, read-out: BrdU IC50. The protocol: as §1
For series [5], the system named is phospho-histone H3 in HCT 116 cells. Briefly: Phospho-histone H3 staining (High Content Screening). Type of series: cell-based. To be noted: Homo sapiens. The protocol: Analysis of phospho-histone H3 (pHH3) levels was performed on adherent cells using high-content screening methodology. […]. This series was diluted 1000× in RPMI-1640 containing 10% FBS (1× treatment concentration: 10 μM-0.0002 μM). […].
Then, medium was aspirated and cells were incubated in 100 μL/well 4% formaldehyde for 15 min at room temperature.
[…]. […] Data were fit to an IC50 equation. […]. Cells were trypsinized, collected, lysed, and analyzed by immunoblotting.

Another series addresses T2, Axl (Homo sapiens, UniProt P30530).
T2 construct: purchased Upstate Biotechnology, Dundee, UK
Briefly: Radiometric kinase assay (Upstate panel). Type of series: biochemical.

Structures are written as SMILES. Read-outs that look alike come from different tables or passages of the source.

T1 sequence (P04049 whole entry): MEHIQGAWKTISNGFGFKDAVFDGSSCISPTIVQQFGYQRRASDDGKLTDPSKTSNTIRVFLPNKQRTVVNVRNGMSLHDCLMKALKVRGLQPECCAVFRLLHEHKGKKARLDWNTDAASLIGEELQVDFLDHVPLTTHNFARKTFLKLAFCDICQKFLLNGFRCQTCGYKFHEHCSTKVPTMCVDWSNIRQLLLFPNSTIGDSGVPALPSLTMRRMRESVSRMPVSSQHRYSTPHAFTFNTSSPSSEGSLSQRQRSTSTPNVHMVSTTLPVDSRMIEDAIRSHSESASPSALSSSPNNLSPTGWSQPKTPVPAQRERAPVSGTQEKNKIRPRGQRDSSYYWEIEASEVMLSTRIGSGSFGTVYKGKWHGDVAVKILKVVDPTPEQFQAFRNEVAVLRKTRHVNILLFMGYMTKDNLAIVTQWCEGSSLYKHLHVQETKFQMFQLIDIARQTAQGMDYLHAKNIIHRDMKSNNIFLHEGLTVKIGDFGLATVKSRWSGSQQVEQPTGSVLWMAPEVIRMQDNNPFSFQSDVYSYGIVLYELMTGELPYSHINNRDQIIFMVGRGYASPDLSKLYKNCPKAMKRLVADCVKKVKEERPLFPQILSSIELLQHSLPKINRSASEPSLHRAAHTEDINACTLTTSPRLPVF
T2 sequence (P30530 26-894): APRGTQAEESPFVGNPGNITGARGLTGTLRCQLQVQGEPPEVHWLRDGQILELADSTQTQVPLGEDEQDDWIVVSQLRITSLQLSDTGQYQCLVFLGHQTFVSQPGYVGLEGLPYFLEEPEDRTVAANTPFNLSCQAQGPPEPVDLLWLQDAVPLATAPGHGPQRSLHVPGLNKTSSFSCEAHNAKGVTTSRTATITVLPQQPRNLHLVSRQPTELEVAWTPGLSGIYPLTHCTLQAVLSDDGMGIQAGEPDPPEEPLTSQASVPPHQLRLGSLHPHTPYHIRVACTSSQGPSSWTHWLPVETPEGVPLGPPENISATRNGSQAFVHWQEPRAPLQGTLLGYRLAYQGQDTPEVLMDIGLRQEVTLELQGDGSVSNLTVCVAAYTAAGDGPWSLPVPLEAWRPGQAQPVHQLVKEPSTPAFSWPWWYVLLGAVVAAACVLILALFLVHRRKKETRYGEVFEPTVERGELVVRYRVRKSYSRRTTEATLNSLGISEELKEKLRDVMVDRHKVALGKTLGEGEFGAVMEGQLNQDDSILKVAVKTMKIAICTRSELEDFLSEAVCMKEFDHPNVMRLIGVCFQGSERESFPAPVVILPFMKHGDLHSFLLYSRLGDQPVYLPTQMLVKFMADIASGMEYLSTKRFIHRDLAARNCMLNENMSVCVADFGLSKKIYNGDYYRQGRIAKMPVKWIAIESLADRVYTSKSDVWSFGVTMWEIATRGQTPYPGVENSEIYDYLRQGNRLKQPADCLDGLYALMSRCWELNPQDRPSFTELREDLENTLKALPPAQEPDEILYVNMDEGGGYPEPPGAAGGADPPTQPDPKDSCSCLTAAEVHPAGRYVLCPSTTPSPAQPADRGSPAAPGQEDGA

Take `O=C(Nc1cccc(Cl)c1)Nc1ncc(CCNc2ncnc3ccsc23)s1` [Compound 2, 1-(3-chlorophenyl)-3-{5-[2-(thieno[3,2-d]pyrimidin-4-ylamino)ethyl]thiazol-2-yl}-urea]: the “disposition following repeated administration” value in series [1] (first versus third weekly dose) is listed as “no change in Compound 2 disposition”. For the same compound, the half-life in [1] (human, plasma, intravenous, patients, weekly 3-hour infusion, Days 1 and 15, read-out: terminal half-life (converted)) is 7 h; in series [3] (60 mg/m2, rat, 60 mg/m^2), 1.4 h; in [3] (300 mg/m2, rat, 300 mg/m^2) it was 1.7 h; in series [3] (600 mg/m2, rat, 600 mg/m^2) it was 5.9 h. The clearance entry in [1] (patients) is “moderate to low”; in series [3] (60 mg/m2, rat, 60 mg/m^2) it was 17.2 mL/min/kg; in series [3] (300 mg/m2, rat, 300 mg/m^2) it was 4 mL/min/kg; in series [3] (600 mg/m2, rat, 600 mg/m^2) it was 2 mL/min/kg. In addition, the “Mean cumulative % recovery” value is given as 39.7% in [2] (Bile, interval 0-8 hr); 68.5% in [2] (Bile, interval 8-24 hr); 69.5% in series [2] (Bile, interval 24-48 hr); 89.7% in [2] (Cumulative Total, 24 hr); 92.3% in series [2] (Cumulative Total, 48 hr); 11.8% in [2] (Feces, interval 0-24 hr). Moreover, the “Mean cumulative % recovery” value in [2] (Feces, interval 24-48 hr) worked out at 13.2%; in series [2] (Urine, interval 0-8 hr), 6.1%; in series [2] (Urine, interval 8-24 hr), 9.4%; in [2] (Urine, interval 24-48 hr), 9.6%. Besides, the Vd in series [3] (60 mg/m2, rat, 60 mg/m^2, read-out: Vss) is 1.3 L/kg; in series [3] (300 mg/m2, rat, 300 mg/m^2, read-out: Vss) it was 1.1 L/kg; in series [3] (600 mg/m2, rat, 600 mg/m^2, read-out: Vss), 1.1 L/kg. Besides, the “dose dependence of systemic exposure (AUC)” value in [3] (most pronounced in rats and mice, lesser extent in dogs) is “non-linear systemic exposure”.

For the compound `CS(=O)(=O)O.O=C(Nc1cccc(Cl)c1)Nc1ncc(CCNc2ncnc3ccsc23)s1` [Compound 1, 1-(3-chlorophenyl)-3-{5-[2-(thieno[3,2-d]pyrimidin-4-ylamino)ethyl]thiazo}-urea], the IC50 against c-Raf was found to be 0.1 µM; with Calu-6, 13.3 nM; in the series with H1299 it was 4 nM; with A375, 5.9 nM; in the series on HCT116 it was 6.4 nM; in the series with MDA-MB-231 it was 8.1 nM. Also, the IC50 was determined as 4.4 nM in the series with PC3; 1.8 nM with A2780; 9.3 nM with HeLa; 9 nM in series [5] (HCT 116, 1 hour, pHH3 staining); 0.084 µM against Axl. For the same compound, the “% TGI” value in series [4] (42.5 mg/kg biw × 3) amounted to 0%; in series [4] (85 mg/kg biw × 3) it was 9.8%; in series [4] (170 mg/kg biw × 3), 53.8%. The figures for the TGD in series [4] (42.5 mg/kg biw × 3), in [4] (85 mg/kg biw × 3) and in series [4] (170 mg/kg biw × 3) were 0 days, 3.5 days and 9 days, respectively. Moreover, the EC50 in the series with HT-29 is 12 nM; in [5] (HCT 116, 1 hour treatment, read-out: EC50 of the reduction of pHH3), approximately 9 nM.

The record behind these values is patent US20110293745A1, “AURORA KINASE INHIBITORS” (SUNESIS PHARMACEUTICALS, INC., priority 2008, published 2011).
